From patent US10738028B2, “Spiro three-membered ring, spiro five-membered ring peptide deformylase inhibitor and use thereof in antibacteria and anti-tumor” (priority 2016, dated 2020)
Read-outs that look alike come from different tables or passages of the source.

Tests used:
Format in all cases: cell-based
[1] = test system: Enterococcus faecalis (EFA); assay: MIC, two-fold agar dilution (CLSI), clinical isolates
Outline: (§1)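 Samples are serially diluted two-fold in agar following CLSI guidance. Plates are then inoculated with the tested strains. The lowest inhibiting concentration is recorded as MIC.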

[2] = test system: Enterococcus faecium (EFM); assay: as above
Outline: as §1

[3] = test system: Escherichia coli (including ESBLs, non-ESBLs); assay: as above
Outline: as §1

[4] = test system: Moraxella catarrhalis (BCA); assay: as above
Outline: as §1

[5] = test system: Streptococcus pneoumoniae (SPN); assay: as above
Outline: as §1

[6] = test system: methicillin-resistant Staphylococcus aureus (MRSA); assay: as above
Outline: as §1

[7] = test system: methicillin-resistant Staphylococcus epidermidis (MRSE); assay: as above
Outline: as §1

[8] = test system: methicillin-sensitive Staphylococcus aureus (MSSA); assay: as above
Outline: as §1

[9] = test system: methicillin-sensitive Staphylococcus epidermidis (MSSE); assay: as above
Outline: as §1

[10] = test system: HCT-116 colorectal cancer cell line; assay: CCK-8 proliferation inhibition; details: Homo sapiens, HCT-116, 72 h, concentration of 30 μM, 72 hours, CCK-8
Outline: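 Cells seeded at 2000 cells/well, cultured overnight at 37 °C, 5% CO2, then exposed to compound (DMSO; control 1‰ DMSO) for 72 h in McCoy's 5A with 10% newborn bovine serum. Viability read with 1:10 diluted CCK-8.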

[11] = test system: A549 lung cancer cell line; assay: CCK-8 proliferation inhibition; details: Homo sapiens, A549, 72 h, concentration of 30 μM
Outline: (§2)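 Plating at 2000 cells/well, then incubation overnight at 37° C. Next, a range of compound concentrations for 72 hours (control 1‰ DMSO). Finally, medium decanted and CCK-8 diluted 1:10 added.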

[12] = test system: BEL-7402 liver cancer cell line; assay: CCK-8 proliferation inhibition; details: concentration of 30 μM
Outline: as §2

[13] = test system: MGC-803 gastric cancer cell line; assay: CCK-8 proliferation inhibition; details: Homo sapiens, MGC-803, 72 h, concentration of 30 μM
Outline: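 Cells seeded at 2000 cells/well, cultured overnight at 37 °C, 5% CO2, then exposed 72 h to compound dilutions in medium with 10% newborn bovine serum (1‰ DMSO control). Viability read with 1:10 diluted CCK-8 solution. Media: PC3 in F12; MGC-803 and Jurkat in 1640; MCF-7 in DMEM high glucose.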

In the case of `O=C(C[C@@H](CC1CCCC1)C(=O)N1CC2(CC2)C[C@H]1C(=O)Nc1ncccc1F)NO` [Example 67], the Anti-bacterial activity (MIC) ([1]; strain EFA 15-1) is reported as 32 µg/mL, the Anti-bacterial activity (MIC) ([1]; strain EFA 15-2) is reported as 32 µg/mL and the Anti-bacterial activity (MIC) ([1]; strain EFA 15-3) is reported as 32 µg/mL. It also gave an Anti-bacterial activity (MIC) ([1]; strain EFA 15-4) of 32 µg/mL, an Anti-bacterial activity (MIC) ([1]; strain EFA 15-5) of 32 µg/mL and an Anti-bacterial activity (MIC) ([1]; strain EFA 15-6) of 32 µg/mL. It also gave an Anti-bacterial activity (MIC) ([1]; strain EFA 15-9) of 8 µg/mL, an Anti-bacterial activity (MIC) ([2]; strain EFM 15-1) of 32 µg/mL and an Anti-bacterial activity (MIC) ([2]; strain EFM 15-2) of over 32 µg/mL. The Anti-bacterial activity (MIC) ([2]; strain EFM 15-3) was over 32 µg/mL, the Anti-bacterial activity (MIC) ([2]; strain EFM 15-4) was 2 µg/mL and the Anti-bacterial activity (MIC) ([2]; strain EFM 15-5) was 0.25 µg/mL. It also gave an Anti-bacterial activity (MIC) ([2]; strain EFM 15-6) of 0.25 µg/mL, an Anti-bacterial activity (MIC), strain ECO+ 15-1 ([3]; clinical isolate ECO+ 15-1) of 16 µg/mL and an Anti-bacterial activity (MIC), strain ECO+ 15-2 ([3]; clinical isolate ECO+ 15-2) of 16 µg/mL. It also gave an Anti-bacterial activity (MIC), strain ECO+ 15-3 ([3]; clinical isolate ECO+ 15-3) of 32 µg/mL, an Anti-bacterial activity (MIC), strain ECO+ 15-4 ([3]; clinical isolate ECO+ 15-4) of 32 µg/mL and an Anti-bacterial activity (MIC), strain ECO− 15-1 ([3]; clinical isolate ECO− 15-1) of 32 µg/mL. For the same molecule, the Anti-bacterial activity (MIC), strain ECO− 15-2 ([3]; clinical isolate ECO− 15-2) was 32 µg/mL, the Anti-bacterial activity (MIC), strain ECO− 15-3 ([3]; clinical isolate ECO− 15-3) was 32 µg/mL and the Anti-bacterial activity (MIC), strain ECO− 15-4 ([3]; clinical isolate ECO− 15-4) was 32 µg/mL. For the same molecule, the Anti-bacterial activity (MIC) ([4]; strain BCA 14-1) was 2 µg/mL, the Anti-bacterial activity (MIC) ([4]; strain BCA 14-4) was 2 µg/mL and the Anti-bacterial activity (MIC) ([4]; strain BCA 14-5) was 2 µg/mL. It also gave an Anti-bacterial activity (MIC) ([4]; strain BCA 14-6) of 2 µg/mL, an Anti-bacterial activity (MIC) ([4]; strain BCA 14-7) of 2 µg/mL and an Anti-bacterial activity (MIC) ([4]; strain BCA 14-8) of 2 µg/mL. The Anti-bacterial activity (MIC) ([4]; strain BCA 14-10) was 0.5 µg/mL, the Anti-bacterial activity (MIC) ([5]; strain SPN 16-2) was 0.25 µg/mL and the Anti-bacterial activity (MIC) ([5]; strain SPN 16-4) was 0.25 µg/mL. It also gave an Anti-bacterial activity (MIC), strain MRSA 15-1 ([6]; clinical isolate MRSA 15-1) of 0.25 µg/mL, an Anti-bacterial activity (MIC), strain MRSA 15-2 ([6]; clinical isolate MRSA 15-2) of 0.5 µg/mL and an Anti-bacterial activity (MIC), strain MRSA 15-3 ([6]; clinical isolate MRSA 15-3) of 0.25 µg/mL. The Anti-bacterial activity (MIC), strain MRSA 15-4 ([6]; clinical isolate MRSA 15-4) was 0.5 µg/mL, the Anti-bacterial activity (MIC), strain MRSE 15-1 ([7]; clinical isolate MRSE 15-1) was 0.5 µg/mL and the Anti-bacterial activity (MIC), strain MRSE 15-2 ([7]; clinical isolate MRSE 15-2) was 0.5 µg/mL. The Anti-bacterial activity (MIC), strain MRSE 15-3 ([7]; clinical isolate MRSE 15-3) was 0.5 µg/mL, the Anti-bacterial activity (MIC), strain MRSE 15-7 ([7]; clinical isolate MRSE 15-7) was 0.5 µg/mL and the Anti-bacterial activity (MIC), strain MSSA 15-3 ([8]; clinical isolate MSSA 15-3) was 0.5 µg/mL. For the same molecule, the Anti-bacterial activity (MIC), strain MSSA 15-4 ([8]; clinical isolate MSSA 15-4) was 0.125 µg/mL, the Anti-bacterial activity (MIC), strain MSSA 15-5 ([8]; clinical isolate MSSA 15-5) was 0.125 µg/mL and the Anti-bacterial activity (MIC), strain MSSA 15-6 ([8]; clinical isolate MSSA 15-6) was 32 µg/mL. It also gave an Anti-bacterial activity (MIC), strain MSSE 15-3 ([9]; clinical isolate MSSE 15-3) of 0.25 µg/mL, an Anti-bacterial activity (MIC), strain MSSE 15-4 ([9]; clinical isolate MSSE 15-4) of 0.5 µg/mL and an Anti-bacterial activity (MIC), strain MSSE 15-5 ([9]; clinical isolate MSSE 15-5) of 0.5 µg/mL. It also gave an Anti-bacterial activity (MIC), strain MSSE 15-6 ([9]; clinical isolate MSSE 15-6) of 0.125 µg/mL, an inhibition at 30 µM ([10]; Table 5, read-out: Inhibition of proliferation, Colorectal cancer HCT116) of at least 30% and an inhibition at 30 µM ([10]; read-out: HCT116 inhibition rate/%) of 44%. For the same molecule, the inhibition at 30 µM [11] was 36%, the inhibition at 30 µM ([12]; Homo sapiens, Bel-7402, 72 h) was over 50% and the “Inhibition of proliferation, Liver cancer BEL-7402” value ([12]; 72 hours, 30 µM) was 57%. For the same molecule, the inhibition at 30 µM [13] was 39%.
